The values that follow are results of earlier work, collected in patent US8314091B2, “N-benzyl,N'-arylcarbonylpiperazine derivatives” (MSD OSS B.V., priority 2007, dated 2012).

Data set [1] concerns vascular smooth muscle cell proliferation and neointima formation. As to conditions: following balloon injury, in vitro and in vivo.
The subject of data set [2] is tumours in an animal model of prostate cancer.
A further data set deals with β-amyloid. As to conditions: in vivo.

Regarding `O=S(=O)(c1ccccc1)N(CC(F)(F)F)c1ccc(C(O)(C(F)(F)F)C(F)(F)F)cc1` [Example T0901317], the “effect on vascular smooth muscle cell proliferation and neointima formation” value in data set [1] was “inhibit vascular smooth muscle cell proliferation and neointima formation”. The “effect on progression of tumours” value in data set [2] is “delayed progression of tumours”. Also, in the data set with β-amyloid, the “deposition of β-amyloid” value is recorded as “lower deposition of β-amyloid” and the memory entry is “improve memory”.
